One assay deals with E. coli Mach1-T1. Description: Minimum inhibitory concentration (MIC) of 3-HP, microaerobic, 96 well-plate, MOPS minimal media. The following applies: E. coli Mach1-T1, MOPS minimal media with the supplement at its optimal concentration vs unsupplemented, microaerobic, 24 hours. It counts as cell-based, Escherichia coli. As for the experimental part:
Overnight cultures of strains were grown in 5 ml LB (with antibiotic where appropriate). A 1 v/v % was used to inoculate a 15 ml conical tube filled to the top with MOPS minimal media and capped. After the cells reached mid exponential phase, the culture was diluted to an OD600 of 0.200. The cells were further diluted 1:20 and a 10 ul aliquot was used to inoculate each well (˜10^4 cells per well).
The minimum inhibitory concentration (MIC) was determined microaerobically in a 96 well-plate format. Overnight cultures of strains were grown in 5 mL LB (with antibiotic where appropriate). A 1% (v/v) inoculum was introduced into a 15 ml culture of MOPS minimal media. After the cells reached mid-exponential phase, the culture was diluted to an OD600 of 0.200. The cells were further diluted 1:20 and a 10 μL aliquot was used to inoculate each well of a 96 well plate (˜10^4 cells per well).

A further assay relates to B. subtilis. Description: MIC protocol B. subtilis aerobic (Common Methods, M9 media + glutamate, 24 hours). It counts as cell-based, Bacillus subtilis. The settings on record: for Avg 24 hr ΔOD600: B. subtilis 168 in M9 + glu + trp with the named supplement(s), 3HP tolerance; for % Increase Over Control: increase of 24 hr ΔOD600 over B. subtilis 168 without supplement. The method, then: (§1) For MIC evaluations, the final results are expressed in chemical agent concentrations determined by analysis of the stock solution by HPLC (i.e., see Subsection Mb).
The minimum inhibitory concentration (MIC) was determined aerobically in a 96 well-plate format. […] Media supplements were added according to levels reported in the Supplements Table where specified. Overnight cultures of strains were grown in triplicate in 5 mL LB (with antibiotic where appropriate). A 1% (v/v) inoculum was introduced into a 5 ml culture of M9 minimal media+glutamate.

For assay [1], the system named is Yeast strains (S288C background). It counts as cell-based, Saccharomyces cerevisiae. The settings on record: anaerobic; for Average MIC Assay Result (g/L 3-HP): MIC of 3-HP for yeast S288C in SD media with the named supplement(s); for % Increase Over Control: increase of 3-HP MIC over S288C in SD without supplement. As for the experimental part: The minimum inhibitory concentration (MIC) was determined anaerobically in a 96 well-plate format. […] A 1% (v/v) inoculum was introduced into a 5 ml culture of SD minimal media without vitamins. After the cells reached mid-exponential phase, the culture was diluted to an OD600 of 0.200. The cells were further diluted 1:5 and a 10 μL aliquot was used to inoculate each well of a 96 well plate (˜10^4 cells per well) to total volume of 100 uL. […] Plates were incubated for 72 hours at 30 C. […] Plates were sealed in biobag anaerobic chambers that contained gas generators for anaerobic conditions and incubated for 72 hours at 30 C.

For assay [2] the test system is unchanged. It counts as cell-based, Saccharomyces cerevisiae. The following applies: aerobic; for Average MIC Assay Result (g/L 3-HP): MIC of 3-HP for yeast S288C in SD media with the named supplement(s); for % Increase Over Control: increase of 3-HP MIC over S288C in SD without supplement. As for the experimental part:
The minimum inhibitory concentration (MIC) was determined aerobically in a 96 well-plate format. […] Media supplements were added according to levels reported in the Supplements Table, where specified. Overnight cultures of strains were grown in triplicate in 5 mL SD media with vitamins (Methods in Enzymology vol. 350, page 17 (2002)). A 1% (v/v) inoculum was introduced into a 5 ml culture of SD minimal media without vitamins. After the cells reached mid-exponential phase, the culture was diluted to an OD600 of 0.200. The cells were further diluted 1:5 and a 10 μL aliquot was used to inoculate each well of a 96 well plate (˜10^4 cells per well) to total volume of 100 uL. […] Plates were incubated for 72 hours at 30 C.

Assay [3] deals with E. coli. It counts as cell-based, Escherichia coli. The following applies: strain BW25113, M9 media with the named supplement(s), aerobic; MIC of 3-HP versus M9 control without supplement. The method, then:
as §1
The minimum inhibitory concentration (MIC) was determined aerobically in a 96 well-plate format. […] Media supplements were added according to levels reported in the Supplements Table, where specified. Overnight cultures of strains were grown in triplicate in 5 mL LB (with antibiotic where appropriate). A 1% (v/v) inoculum was introduced into a 5 ml culture of M9 minimal media.

The next assay has as its system strain BX3_0194. The experiment in a line: 3-HP production by BX3_0194 at 100-mL scale in SM3 medium, without or with 10 μg/ml cerulenin. It counts as cell-based, E. coli.
The subject of assay [4] is E. coli. It counts as cell-based, Escherichia coli. The following applies: anaerobic; for MIC Assay Result (g/L 3-HP): MIC of 3-HP for E. coli BW25113 in M9 media with the named supplement(s), 24-hour; for % Increase Over Control: increase of 3-HP MIC over BW25113 in M9 without supplement. As for the experimental part: as §1
The minimum inhibitory concentration (MIC) was determined anaerobically in a 96 well-plate format. […] Media supplements were added according to levels reported in the Supplements Table, where specified. Overnight cultures of strains were grown in triplicate in 5 mL LB (with antibiotic where appropriate). A 1% (v/v) inoculum was introduced into a 5 ml culture of M9 minimal media.

For a further assay, the system named is E. coli K12. It counts as cell-based, Escherichia coli. The settings on record: E. coli K12, M9 minimal media supplemented with the substance (polyamines 0.1 g/L, sodium bicarbonate 20 mM), aerobic, 24 hours.

Read-outs that look alike come from different tables or passages of the source.

Protocol for E. coli K12: Overnight cultures of strains were grown in 5 ml LB (with antibiotic where appropriate) at 37° C. in a shaking incubator. A 1 v/v % was used to inoculate 10 mL of M9 minimal media. After the cells reached mid-exponential phase, the culture was diluted to an OD600 of 0.200. The cells were further diluted 1:20 and a 10 ul aliquot was used to inoculate each well (˜10^4 cells per well). […] The MIC endpoint is the lowest concentration of compound at which there was no visible growth.
Protocol for strain BX3_0194: Cultures were started from freezer stocks by standard practice (Sambrook and Russell, 2001) into 50 mL of LB media plus 100 μg/mL ampicillin and grown to stationary phase overnight at 37° C. with rotation at 225 rpm. Five ml of this culture were transferred to 100 ml of SM3 media plus 40 g/L glucose, 100 μg/ml ampicillin, and 1 mM IPTG in triplicate 250-ml baffled flasks and incubated at 37° C., 225 rpm. […] Dry cell weight (DCW) is calculated as 0.33 times the measured OD600 value, based on baseline DCW to OD600 determinations. All data are the average of triplicate cultures.

Turning to `N[C@@H](CCO)C(=O)O` [homoserine], the “MIC increase (3-HP) resulting from supplementation” value (“MIC increase (3-HP) resulting” for short) with E. coli Mach1-T1 came out at 33%.

Turning to `CSCC[C@H](N)C(=O)O` [Methionine], in the assay on B. subtilis, the “Avg 24 hr ΔOD600” value is listed as 0.15.

Consider `CCC(=O)C(=O)O` [2-oxobutyrate (B)], for which, in assay [1], the “Average MIC Assay Result (g/L 3-HP)” value is listed as 38 g/L and the “% Increase Over Control” value amounted to 2%. Further, in assay [2], the “Average MIC Assay Result (g/L 3-HP)” value worked out at 50 g/L and the “% Increase Over Control” value amounted to 11%.

As for `NCC(=O)O` [Glycine (B)], in assay [1], the “Average MIC Assay Result (g/L 3-HP)” value came out at 60 g/L and the “% Increase Over Control” value is given as 60%. In assay [2], the “Average MIC Assay Result (g/L 3-HP)” value is recorded as 50 g/L and the “% Increase Over Control” value was 11%.

Turning to `C[C@@H](O)[C@H](N)C(=O)O` [Threonine (B)], the “% Increase Over Control” value in assay [1] is recorded as 2%.

In the case of `NC(=O)CC[C@H](N)C(=O)O` [Glutamine(C)], in the assay on E. coli [3], the “% Increase Over Control” value came out at 9%.

As to `C/C=C/C/C=C/CCC(=O)[C@H]1O[C@H]1C(N)=O` [cerulenin], the 3HP is listed as 0.003 g/L in the assay with strain BX3_0194 (4 hr), 0.14 g/L in the assay on strain BX3_0194 (6 hr), 0.43 g/L in the assay on strain BX3_0194 (8 hr) and 1.43 g/L with strain BX3_0194 (24 hr).

With `Nc1nc(=O)c2c([nH]1)NC[C@@H](CNc1ccc(C(=O)N[C@@H](CCC(=O)O)C(=O)O)cc1)N2` [Tetrahydrofolate (A)], in the assay on E. coli [4], the “MIC Assay Result (g/L 3-HP)” value amounted to 40.0 g/L and the “% Increase Over Control” value is on record as 33%. For the same compound, the “% Increase Over Control” value with E. coli [3] was found to be 9%.

For the compound `O=C(O)c1cccc(O)c1O` [2,3-didyroxybenzoic acid, 2,3-dihydroxybenzoic acid], the “MIC increase (3-HP) resulting” value in the assay on E. coli Mach1-T1 was 33%.

On to `NC(=O)NCCC[C@H](N)C(=O)O` [Citrulline (C)], for which the “Average MIC Assay Result (g/L 3-HP)” value was determined as 97 g/L in assay [1] and 58 g/L in assay [2]. In addition, the figures for the “% Increase Over Control” value (in assay [2]; with E. coli [3]) were 28% and 9%, respectively.

For `O=C(O)CC(O)(CC(=O)O)C(=O)O` [Citrate], the “Avg 24 hr ΔOD600” value in the assay on B. subtilis turned out to be 0.30.

As to `N[C@@H](Cc1c[nH]c2ccccc12)C(=O)O` [tryptophan], the “MIC increase (3-HP) resulting” value against E. coli Mach1-T1 worked out at 33%.

With `CC[C@H](C)[C@H](N)C(=O)O` [Isoleucine (B)], in assay [1], the “Average MIC Assay Result (g/L 3-HP)” value is reported as 38 g/L and the “% Increase Over Control” value is recorded as 2%. Further, in the assay on E. coli [3], the “% Increase Over Control” value amounted to 17%.

For `N[C@@H](Cc1ccccc1)C(=O)O` [phenylalanine], the “MIC increase (3-HP) resulting” value against E. coli Mach1-T1 amounted to 33%.

On to `NCCCCCN` [Cadaverine (C)], for which the “% Increase Over Control” value in assay [1] came to 60%.

Turning to `NCCCC[C@H](N)C(=O)O` [Lysine (D)], the “% Increase Over Control” value with E. coli [4] is recorded as 39%; in assay [1] it was 20%; in the assay with E. coli [3], 33%. The “Average MIC Assay Result (g/L 3-HP)” value in assay [1] worked out at 45 g/L.

For `O=C(O)C1=C[C@@H](O)[C@@H](O)[C@H](O)C1` [Shikimate (A)], the “Average MIC Assay Result (g/L 3-HP)” value in assay [1] came to 60 g/L; in assay [2] it was 80 g/L. Further, the entries for the “% Increase Over Control” value (in assay [1]; in assay [2]; with E. coli [3]) were 60%, 78% and 3%, respectively.

On to `NCCC[C@H](N)C(=O)O` [Ornithine(C)], for which, in the assay on E. coli [3], the “% Increase Over Control” value is listed as 9%.

Take `N[C@@H](Cc1ccccc1)C(=O)O` [Phenylalanine (A)]: the “% Increase Over Control” value in assay [1] is 2%; in the assay with E. coli [3] it was 17%.

`O=C([O-])O.[Na+]` [sodium bicarbonate]: the “Minimum inhibitory concentration (MIC) of 3-HP in supplemented media” value with E. coli K12 is 30 mg/mL. Moreover, in the assay with B. subtilis, the “Avg 24 hr ΔOD600” value was 0.06 and the “% Increase Over Control” value was found to be 56%.

On to `CCC(=O)C(=O)O` [oxobutanoate], for which the “MIC increase (3-HP) resulting” value in the assay on E. coli Mach1-T1 is recorded as 7%.

On to `Nc1ccc(C(=O)O)cc1` [p-aminobenzoate (A)], for which the “MIC Assay Result (g/L 3-HP)” value in the assay with E. coli [4] was 40.0 g/L. Also, the “% Increase Over Control” value in the assay on E. coli [4] amounted to 33%; in the assay with E. coli [3] it was 27%.

Consider `NNC(=O)c1ccc(O)cc1` [p-hydroxybenzoic acid hydrazide], for which, in the assay on E. coli Mach1-T1, the “MIC increase (3-HP) resulting” value is 33%.

Consider `NC(CCS)C(=O)O` (stereo not drawn) [Homocysteine (B)], for which, in assay [1], the “Average MIC Assay Result (g/L 3-HP)” value is reported as 40 g/L and the “% Increase Over Control” value is 7%. Besides, in the assay with E. coli [3], the “% Increase Over Control” value is on record as 9%.

Take `C[C@@H](O)[C@H](N)C(=O)O` [threonine]: the “MIC increase (3-HP) resulting” value against E. coli Mach1-T1 was 3%.

`N[C@@H](Cc1c[nH]c2ccccc12)C(=O)O` [Tryptophan (A)]: the “% Increase Over Control” value is listed as 47% in assay [1] and 20% in assay [2].

Take `O=C(O)O` [Bicarbonate (C)]: in assay [1], the “Average MIC Assay Result (g/L 3-HP)” value was found to be 90 g/L and the “% Increase Over Control” value came out at 140%. Further, the “% Increase Over Control” value with E. coli [3] is listed as 59%.

As for `N[C@@H](CO)C(=O)O` [Serine (B)], the “% Increase Over Control” value is on record as 7% in the assay with E. coli [4], 20% in assay [1] and 17% in the assay on E. coli [3]. For the same compound, the “Average MIC Assay Result (g/L 3-HP)” value in assay [1] amounted to 45 g/L.

On to `N[C@@H](Cc1ccc(O)cc1)C(=O)O` [tyrosine], for which the “MIC increase (3-HP) resulting” value against E. coli Mach1-T1 is listed as 40%.

In the case of `N[C@@H](CC(=O)O)C(=O)O` [Aspartate], the “% Increase Over Control” value in assay [2] is reported as 26%.

Turning to `NCCCCNCCCN` [Spermidine (C)], the “% Increase Over Control” value in assay [1] was 60%.

Turning to `Nc1ccc(C(=O)O)cc1` [p-aminobenzoic acid], in the assay on B. subtilis, the “Avg 24 hr ΔOD600” value is 0.07 and the “% Increase Over Control” value was 89%. Further, the “MIC increase (3-HP) resulting” value with E. coli Mach1-T1 is reported as 7%.

With `Cc1ncc(CO)c(CO)c1O.Cl` [pyridoxine hydrochloride], the “MIC increase (3-HP) resulting” value against E. coli Mach1-T1 amounted to 0%.

With `Cl.NC1CCSC1=O` (stereo not drawn) [homocysteine thiolactone hydrochloride], the “MIC increase (3-HP) resulting” value in the assay on E. coli Mach1-T1 was 60%.

These data come from patent publication US9388419B2 (The Regents of the University of Colorado, a body corporate, priority 2009, dated 2016).
